Test system: production of IL-17 in mouse splenocytes stimulated by recombinant mouse interleukin-23
Test: Production of IL-17 induced when mouse splenocytes were stimulated by rm-IL-23 (ELISA)
Type: cell-based
Conditions: Splenocyte, inhibition of IL-17 production, rm-IL-23 1 nmol/L, 72 hours
Protocol: Effect on Production of IL-17 Induced when Mouse Splenocytes were Stimulated by Recombinant Mouse Interleukin-23 (rm-IL-23)
RPMI1640 media (Sigma-Aldrich) were used as a medium, to which 50 units/mL penicillin G potassium/50 μg/mL streptomycin (Gibco) and […] 2-mercaptoethanol (Sigma-Aldrich) were added, and then thereto was added 10% of fetal calf serum (FCS; Cell Culture Technology) which was treated at 56° C. for 30 minutes to be inactivated, and the mixture was used in the Test. The test compound was dissolved in dimethylsulfoxide and then diluted with 10% FCS-containing RPMI1640 medium to a desired concentration to be used. The spleens were aseptically taken out from 6 to 7 week-old male DBA/1J mice (Charles River Japan, Inc.) and a single cell suspension of splenocytes was prepared, which was hemolyzed by hypotonic treatment with a mixed solution of 0.83% aqueous solution of ammonium chloride and Tris-HCl buffer of pH 7.65 (9:1). A cell suspension prepared by using 10% FCS-containing RPMI1640 medium was added to a flat-bottomed 96 well microtestplate (Coaster) at 2×10^5 cells/well. Thereto were added test compounds and rm-IL-23 (R&D systems) were diluted with a medium to 1 to 1,000 nmol/L and 1 nmol/L of the final concentration, respectively, and the mixture was cultured at 37° C., 5% carbon dioxide and 95% air for 72 hours. After completion of the culture, culture supernatant was sampled and production amounts of IL-17 therein were determined by ELISA method. After sampling the supernatant, WST-8 (Seikagaku Corporation) was added at 10 μl/well and cultured at 37° C., 5% carbon dioxide and 95% air for 4 hours. Then, absorbance (O.D.: Optical Density) at 450 nm was measured by a microplate reader and the value was adopted as an index of cell survivability. An inhibition rate was calculated according to the following formula on the basis of an average of production amounts of IL-17 and O.D. values of the well containing a test compound of each concentration. Inhibition (%)=(1−(Average value of well with addition of test compound)/(Average value of well without addition of test compound))×100
Based on the dose-response curve obtained by plotting the inhibition rate in the longitudinal axis and the concentration in the horizontal axis, the concentration of the compound which inhibits the level to 50% of the value of the control group (IC50) (nmol/L) was determined by linear regression analysis.

CC(=O)OC(C)C1CCN(c2ncc(NC(=O)c3cnn(-c4ccc(C(F)(F)F)cn4)c3C)cc2C)CC1 (stereo not drawn) [Example 52, acetic acid {1-[1-(3-methyl-5-{5-methyl-1-[5-(trifluoromethyl)pyridin-2-yl]-1H-pyrazole-4-carboxamide}pyridin-2-yl)piperidin-4-yl]ethyl}ester] and COC(C)C1CCN(c2ncc(NC(=O)c3cnn(-c4ccc(C(F)(F)F)cn4)c3C)cc2C)CC1 (stereo not drawn) [Example 53, N-{6-[4-(1-methoxyethyl)piperidin-1-yl]-5-methylpyridin-3-yl}-5-methyl-1-[5-(trifluoromethyl)pyridin-2-yl]-1H-pyrazole-4-carboxamide] are within 1.5-fold of each other in IC50: 53.1 nM for the first, 51.8 nM for the second.

Cc1cc(NC(=O)c2cnn(-c3ccc(F)cc3)c2C)cnc1N1CCC(C(C)(C)O)CC1 [Example 54, 1-(4-fluorophenyl)-N-{6-[4-(1-hydroxy-1-methylethyl)piperidin-1-yl]-5-methylpyridin-3-yl}-5-methyl-1H-pyrazole-4-carboxamide] and Cc1ccc(-n2ncc(C(=O)Nc3cnc(N4CCC(C(C)(C)O)CC4)c(C)c3)c2C)cc1 [Example 56, N-{6-[4-(1-hydroxy-1-methylethyl)piperidin-1-yl]-5-methylpyridin-3-yl}-5-methyl-1-(4-methylphenyl)-1H-pyrazole-4-carboxamide] are within 1.5-fold of each other in IC50: 51 nM for the first, 44.4 nM for the second.

Compared with Cc1cc(NC(=O)c2cnn(-c3ccc(C(F)(F)F)cn3)c2C)cnc1N1CCC(C(C)O)CC1 (stereo not drawn) [Example 55, N-{6-[4-(1-hydroxyethyl)piperidin-1-yl]-5-methylpyridin-3-yl}-5-methyl-1-[5-(trifluoromethyl)pyridin-2-yl]-1H-pyrazole-4-carboxamide], Cc1cc(NC(=O)c2cnn(-c3ccc(C(F)(F)F)cn3)c2C)cnc1N1CCC(C(C)(C)O)CC1 [Example 62, N-{6-[4-(1-hydroxy-1-methylethyl)piperidin-1-yl]-5-methylpyridin-3-yl}-5-methyl-1-[5-(trifluoromethyl)pyridin-2-yl]-1H-pyrazole-4-carboxamide] is 2.9-fold lower in IC50: 49.6 nM for the first, 17 nM for the second.

Cc1ccc(-n2ncc(C(=O)Nc3cnc(N4CCC(CC(C)(C)O)CC4)c(C)c3)c2C)nc1 [Example 57, N-{6-[4-(2-hydroxy-2-methylpropyl)piperidin-1-yl]-5-methylpyridin-3-yl}-5-methyl-1-(5-methylpyridin-2-yl)-1H-pyrazole-4-carboxamide] and Cc1cc(NC(=O)c2cnn(-c3ccc(F)cn3)c2C)cnc1N1CCC(CC(C)(C)O)CC1 [Example 60, 1-(5-fluoropyridin-2-yl)-N-{6-[4-(2-hydroxy-2-methylpropyl)piperidin-1-yl]-5-methylpyridin-3-yl}-5-methyl-1H-pyrazole-4-carboxamide] are within 1.5-fold of each other in IC50: 36.7 nM for the first, 30.4 nM for the second.

Compared with Cc1cc(NC(=O)c2cnn(-c3ccc(Cl)cn3)c2C)cnc1N1CCC(C(C)(C)O)CC1 [Example 58, 1-(5-chloropyridin-2-yl)-N-{6-[4-(1-hydroxy-1-methylethyl)piperidin-1-yl]-5-methylpyridin-3-yl}-5-methyl-1H-pyrazole-4-carboxamide], Cc1cc(NC(=O)c2cnn(-c3ccc(Cl)cc3)c2C)cnc1N1CCC(C(C)(C)O)CC1 [Example 63, 1-(4-chlorophenyl)-N-{6-[4-(1-hydroxy-1-methylethyl)piperidin-1-yl]-5-methylpyridin-3-yl}-5-methyl-1H-pyrazole-4-carboxamide] is 2.1-fold lower in IC50: 33 nM for the first, 15.6 nM for the second.

First: Cc1cc(NC(=O)c2cnn(-c3ncc(Cl)cc3Cl)c2C)cnc1N1CCC(C(C)(C)O)CC1 [Example 59, 1-(3,5-dichloropyridin-2-yl)-N-{6-[4-(1-hydroxy-1-methylethyl)piperidin-1-yl]-5-methylpyridin-3-yl}-5-methyl-1H-pyrazole-4-carboxamide]
Second: Cc1cc(NC(=O)c2cnn(-c3ccc(C(F)(F)F)cc3)c2C)cnc1N1CCC(C(C)(C)O)CC1 [Example 61, N-{6-[4-(1-hydroxy-1-methylethyl)piperidin-1-yl]-5-methylpyridin-3-yl}-5-methyl-1-[4-(trifluoromethyl)phenyl]-1H-pyrazole-4-carboxamide]
The IC50 of the first is 1.6-fold higher: 31.8 nM for the first, 19.4 nM for the second. The second is the more potent here.

Compared with Cc1cc(NC(=O)c2cnn(-c3ccc(C4CC4)cn3)c2C)cnc1N1CCC(CC(C)(C)O)CC1 [Example 64, 1-(5-cyclopropylpyridin-2-yl)-N-{6-[4-(2-hydroxy-2-methylpropyl)piperidin-1-yl]-5-methylpyridin-3-yl}-5-methyl-1H-pyrazole-4-carboxamide], Cc1cc(NC(=O)c2cnn(-c3ccc(C(F)(F)F)cn3)c2C)cnc1N1CCC(CC(C)(C)O)CC1 [Example 65, N-{6-[4-(2-hydroxy-2-methylpropyl)piperidin-1-yl]-5-methylpyridin-3-yl}-5-methyl-1-[5-(trifluoromethyl)pyridin-2-yl]-1H-pyrazole-4-carboxamide] is 2.2-fold lower in IC50: 12 nM for the first, 5.35 nM for the second.

Compared with Cc1c(C(=O)Nc2cnc(N3CCC(=O)CC3)c(C3CC3)c2)cnn1-c1ccc(Cl)cc1 [Example 70, 1-(4-chlorophenyl)-N-[5-cyclopropyl-6-(piperidin-4-on-1-yl)pyridin-3-yl]-5-methyl-1H-pyrazole-4-carboxamide], Cc1c(C(=O)Nc2cnc(N3CCC(CCO)CC3)c(Cl)c2)cnn1-c1ccc(Cl)cc1 [Example 74, N-{5-chloro-6-[4-(2-hydroxyethyl)piperidin-1-yl]pyridin-3-yl}-1-(4-chlorophenyl)-5-methyl-1H-pyrazole-4-carboxamide] is 2.3-fold lower in IC50: 205 nM for the first, 87.7 nM for the second. The second is the more potent here.

Compared with Cc1cc(NC(=O)c2c[nH]c(-c3ccc(C(F)(F)F)cc3)n2)cnc1N1CCC(C(C)(C)O)CC1 [Example 75, N-{6-[4-(1-hydroxy-1-methylethyl)piperidin-1-yl]-5-methylpyridin-3-yl}-2-[4-(trifluoromethyl)phenyl]-1H-imidazole-4-carboxamide], Cc1cc(NC(=O)c2cnc(-c3ccc(C(F)(F)F)cc3)n2C)cnc1N1CCC(C(C)(C)O)CC1 [Example 76, N-{6-[4-(1-hydroxy-1-methylethyl)piperidin-1-yl]-5-methylpyridin-3-yl}-3-methyl-2-[4-(trifluoromethyl)phenyl]-3H-imidazole-4-carboxamide] is 3.6-fold lower in IC50: 109 nM for the first, 30.4 nM for the second. The second is the more potent here.

Going from Cc1cc(NC(=O)c2ccc(-c3ccc(Cl)cc3)s2)cnc1N1CCC(C(C)(C)O)CC1 [Example 78, 5-(4-chlorophenyl)-N-{6-[4-(1-hydroxy-1-methylethyl)piperidin-1-yl]-5-methylpyridin-3-yl}thiophene-2-carboxamide] to Cc1cc(NC(=O)c2csc(-c3ccc(Cl)cc3)c2)cnc1N1CCC(C(C)(C)O)CC1 [Example 79, 2-(4-chlorophenyl)-N-{6-[4-(1-hydroxy-1-methylethyl)piperidin-1-yl]-5-methylpyridin-3-yl}thiophene-4-carboxamide], the IC50 rises from 15.6 nM to 43.6 nM (2.8-fold).

First: Cc1cc(NC(=O)c2cc(-c3ccc(Cl)cc3)cs2)cnc1N1CCC(C(C)(C)O)CC1 [Example 80, 4-(4-chlorophenyl)-N-{6-[4-(1-hydroxy-1-methylethyl)piperidin-1-yl]-5-methylpyridin-3-yl}thiophene-2-carboxamide]
Second: Cc1cc(NC(=O)c2cnc(-c3ccc(Cl)cc3)s2)cnc1N1CCC(C(C)(C)O)CC1 [Example 81, 2-(4-chlorophenyl)-N-{6-[4-(1-hydroxy-1-methylethyl)piperidin-1-yl]-5-methylpyridin-3-yl}thiazole-5-carboxamide]
The IC50 of the first is 2.8-fold higher: 185 nM for the first, 66.8 nM for the second. The second is the more potent here.

Cc1cc(NC(=O)c2csc(-c3ccc(Cl)cc3)n2)cnc1N1CCC(C(C)(C)O)CC1 [Example 82, 2-(4-chlorophenyl)-N-{6-[4-(1-hydroxy-1-methylethyl)piperidin-1-yl]-5-methylpyridin-3-yl}thiazole-4-carboxamide] and Cc1cc(NC(=O)c2cnn(-c3ccc(Cl)cc3)n2)cnc1N1CCC(C(C)(C)O)CC1 [Example 85, 2-(4-chlorophenyl)-N-{6-[4-(1-hydroxy-1-methylethyl)piperidin-1-yl]-5-methylpyridin-3-yl}-2H-[1,2,3]triazole-4-carboxamide] are within 1.5-fold of each other in IC50: 91.1 nM for the first, 67.6 nM for the second.

Reference: patent US9527859B2, “Amidopyridine derivative and use thereof” (Mitsubishi Tanabe Pharma Corporation, priority 2012, dated 2016)
